PMC8002271, “Synthesis and Biological Activity Evaluation of Coumarin-3-Carboxamide Derivatives” (Molecules, 2021)
pIC50: −log10 of the molar value. Converted amounts (≈) assume the structure as drawn. Read-outs that look alike come from different tables or passages of the source.

Columns and labels:
B. cereus TISTR 2372 = experiment: Antibacterial microbroth dilution MIC, B. cereus; format: cell-based; conditions: Bacillus cereus, read-out: MIC B. cereus
Description: (§1) The antibacterial activities of coumarin derivatives 10, 12, 13, 14a–g, and 15 were evaluated against five reference standard bacteria, both gram-positive and gram-negative: B. cereus TISTR 2372, B. subtilis TISTR 001, S. aureus TISTR 2392, E. coli TISTR 073, and S. typhimurium TISTR 2519, using a standard microbroth dilution method.
(§2) The MIC values of coumarin derivatives 10, 12, 13, 14a–g, and 15 were determined through the microbroth dilution method in 96-well microtitre plates. The bacterial cultures were prepared from overnight cultures on nutrient broth (NB) at 37 °C for 24 h by diluting in NB compared with 0.5 McFarland. Coumarin derivatives 10, 12, 13, 14a–g, and 15 (5000 µg/mL) were prepared in EtOH, and 128 µg/mL of these were added to the first wells. Two-fold serial dilutions were prepared, and final concentrations of 128 to 1 µg/mL were achieved. The positive controls for penicillin G were determined, with the final concentrations from 128 to 1 µg/mL. In addition, an extra row of EtOH was used as a vehicle control to determine its possible inhibitory activity. Finally, 10 µL of bacterial suspension was added to each well. After the bacteria were incubated at 37 °C for 24 h, the microtitre plates were visually examined for bacterial growth; the growth rate was monitored at the optical density at 600 nm with a microplate reader.

B. subtilis TISTR 001 = experiment: Antibacterial microbroth dilution MIC, B. subtilis; format: cell-based; conditions: Bacillus subtilis, read-out: MIC B. subtilis
Description: as §1, §2

S. aureus TISTR 2392 = experiment: Antibacterial microbroth dilution MIC, S. aureus; format: cell-based; conditions: Staphylococcus aureus, read-out: MIC S. aureus
Description: as §1, §2

E. coli TISTR 073 = experiment: Antibacterial microbroth dilution MIC, E. coli; format: cell-based; conditions: Escherichia coli, read-out: MIC E. coli
Description: as §1, §2

[1] = system: S. typhimurium TISTR 2519; experiment: Antibacterial microbroth dilution MIC, S. typhimurium; format: cell-based; conditions: Salmonella enterica, 24 h, read-out: MIC S. typhimurium
Description: as §1, §2

HepG2 cancer cell line = experiment: MTT cell viability assay, HepG2; format: cell-based; conditions: read-out: IC50 HepG2
Description: (§3) The cell viability assays of coumarin derivatives 10, 12, 13, 14a–g, and 15 were conducted against three cancer cell lines (HepG2, HeLa, and MDA-MB-231) and one normal cell line (LLC-MK2) using an MTT assay.
(§4) Stock solutions of coumarin derivatives 10, 12a, 13, 14a–g, and 15 were prepared in EtOH at a concentration of 5000 µg/mL. Prior to use, the stock solutions were further diluted to 128 µg/mL and added to the first wells. Two-fold serial dilutions were prepared, and final concentrations of 128 to 1 µg/mL in culture medium were achieved. Cells were seeded at a density of 5 × 10^4 cells/well in a 96-well plate and incubated for 16 h, followed by treatment with the test compounds. The control culture contained the carrier solvent of 2.5% dimethyl sulfoxide (DMSO). After 24 h, HepG2, HeLa, MDA-MB-231, and LLC-MK2 cells were then incubated with MTT (500 μg/mL) for 4 h. Then, DMSO was added to dissolve the blue formazan crystals formed, which were formed as a result of the action of cellular oxidoreductase enzymes on the MTT dye. Finally, the optical density at 450 nm was determined using a microplate reader.

HeLa cancer cell line = experiment: MTT cell viability assay, HeLa; format: cell-based; conditions: read-out: IC50 HeLa
Description: as §3, §4

LLC-MK2 normal cell line = experiment: MTT cell viability assay, LLC-MK2 normal cells; format: cell-based; conditions: Macaca mulatta, read-out: IC50 LLC-MK2
Description: as §3, §4

[2] = TISTR2372, Gram-positive, microbroth dilution, 37 °C, 24 h
[3] = TISTR001, Gram-positive, microbroth dilution, 37 °C, 24 h
[4] = TISTR2392, Gram-positive, microbroth dilution, 37 °C, 24 h
[5] = TISTR073, Gram-negative, microbroth dilution, 37 °C, 24 h
[6] = Gram-negative, microbroth dilution, 37 °C
[7] = Homo sapiens, HepG2, 24 h, cancer cell line, MTT assay, 24 h treatment
[8] = Homo sapiens, HeLa, 24 h, cancer cell line, MTT assay, 24 h treatment
[9] = LLC-MK2, normal cell line, MTT assay, 24 h treatment
[10] = cancer cell line, MTT assay, 24 h treatment

Structure (SMILES) | MIC (B. cereus TISTR 2372; [2]) [µg/mL] | MIC (B. subtilis TISTR 001; [3]) [µg/mL] | MIC (S. aureus TISTR 2392; [4]) [µg/mL] | MIC (E. coli TISTR 073; [5]) [µg/mL] | MIC [1, 6] [µg/mL] | pIC50 (HepG2 cancer cell line; [7]) | pIC50 (HeLa cancer cell line; [8]) | pIC50 (LLC-MK2 normal cell line; [9]) | melting point [°C] | pIC50 (HepG2 cancer cell line; [10]) | pIC50 (HeLa cancer cell line; [10]) | MIC (B. cereus TISTR 2372; TISTR2372, 24 h) [µg/mL] | MIC (B. subtilis TISTR 001; TISTR001, 24 h) [µg/mL] | MIC (S. aureus TISTR 2392; TISTR2392, 24 h) [µg/mL] | MIC (E. coli TISTR 073; TISTR073, 24 h) [µg/mL] | MIC [1] [µg/mL] | pIC50 (HepG2 cancer cell line; Homo sapiens, HepG2, 24 h) | pIC50 (HeLa cancer cell line; Homo sapiens, HeLa, 24 h) | pIC50 (LLC-MK2 normal cell line; LLC-MK2, 24 h)
CC(C)=CCc1cc2cc(C(=O)Nc3ccccc3)c(=O)oc2cc1O [14a, 7-Hydroxy-6-(3-methylbut-2-en-1-yl)-2-oxo-N-phenyl-2H-chromene-3-carboxamide] | > 128 | > 128 | > 128 | > 128 | > 128 | 5.36 | 4.98 | 6.32 | 258 to 259 |  |  |  |  |  |  |  |  |  | 
CC(C)=CCc1cc2cc(C(=O)Nc3ccc(F)cc3)c(=O)oc2cc1O [14b, N-(4-Fluorophenyl)-7-hydroxy-6-(3-methylbut-2-en-1-yl)-2-oxo-2H-chromene-3-carboxamide] | > 128 | > 128 | > 128 | > 128 | > 128 | 5.31 to 5.58 | 6.12 to 6.41 | < 4.00 | 259 to 261 | 5.31 | 6.12 |  |  |  |  |  |  |  | 
CC(C)=CCc1cc2cc(C(=O)Nc3ccc(Cl)cc3)c(=O)oc2cc1O [14c, N-(4-Chlorophenyl)-7-hydroxy-6-(3-methylbut-2-en-1-yl)-2-oxo-2H-chromene-3-carboxamide] | > 128 | > 128 | > 128 | > 128 | > 128 | 4.52 | 4.85 | 4.18 | 282 to 283 |  |  |  |  |  |  |  |  |  | 
CC(C)=CCc1cc2cc(C(=O)Nc3ccc(Br)cc3)c(=O)oc2cc1O [14d, N-(4-Bromophenyl)-7-hydroxy-6-(3-methylbut-2-en-1-yl)-2-oxo-2H-chromene-3-carboxamide] | > 128 | > 128 | > 128 | > 128 | > 128 | 4.34 | 4.43 | < 4.00 | 276 to 277 |  |  |  |  |  |  |  |  |  | 
CC(C)=CCc1cc2cc(C(=O)Nc3cc(F)ccc3F)c(=O)oc2cc1O [14e, N-(2,5-Difluorophenyl)-7-hydroxy-6-(3-methylbut-2-en-1-yl)-2-oxo-2H-chromene-3-carboxamide] | > 128 | > 128 | > 128 | > 128 | > 128 | 5.31 to 5.58 | 6.12 to 6.41 | 5.88 | 248 to 250 | 5.58 | 6.41 |  |  |  |  |  |  |  | 
CC(C)=CCc1cc2cc(C(=O)Nc3ccc(C)cc3)c(=O)oc2cc1O [14f, 7-Hydroxy-6-(3-methylbut-2-en-1-yl)-2-oxo-N-(p-tolyl)-2H-chromene-3-carboxamide] | > 128 | > 128 | > 128 | > 128 | > 128 | < 4.00 | < 4.00 | 4.07 | 276 to 277 |  |  |  |  |  |  |  |  |  | 
COc1ccc(NC(=O)c2cc3cc(CC=C(C)C)c(O)cc3oc2=O)cc1 [14g, 7-Hydroxy-N-(4-methoxyphenyl)-6-(3-methylbut-2-en-1-yl)-2-oxo-2H-chromene-3-carboxamide] | > 128 | > 128 | > 128 | > 128 | > 128 | < 4.00 | < 4.00 | < 4.00 | 259 to 261 |  |  |  |  |  |  |  |  |  | 
CN(C)c1ccc2cc3ccc(N(C)C)cc3nc2c1 [Acridine orange, acridine orange, reference compound] |  |  |  |  |  | 5.24 | 5.18 | 4.08 |  |  |  |  |  |  |  |  |  |  | 
COc1cccc2c1C(=O)c1c(O)c3c(c(O)c1C2=O)C[C@@](O)(C(=O)CO)C[C@@H]3O[C@H]1C[C@H](N)[C@H](O)[C@H](C)O1 [Doxorubicin, doxorubicin, reference compound] |  |  |  |  |  | 5.72 | 5.93 | 4.20 |  |  |  |  |  |  |  |  |  |  | 
CC1(C)C=Cc2cc3cc(C(=O)O)c(=O)oc3cc2O1 [compound 10, 8,8-dimethyl-2-oxo-2H,8H-pyrano[3,2-g]chromene-3-carboxylic acid] | 128 (≈ 470 µM) | 128 (≈ 470 µM) | 64 (≈ 235 µM) | > 128 | > 128 | < 4.00 | 4.09 | < 4.00 | 187 to 188 |  |  |  |  |  |  |  |  |  | 
CC1(C)C=Cc2cc3cc(C(=O)Nc4ccccc4)c(=O)oc3cc2O1 [compound 12, 8,8-dimethyl-2-oxo-N-phenyl-2H,8H-pyrano[3,2-g]chromene-3-carboxamide] | > 128 | > 128 | > 128 | > 128 | > 128 | 5.63 | < 4.00 | < 4.00 | 187 to 188 |  |  |  |  |  |  |  |  |  | 
CC(C)=CCc1cc2ccc(=O)oc2cc1O [compound 15, 6-(3-Methyl-2-buteny1)-7-hydroxycoumarin] |  |  |  |  |  |  |  |  |  |  |  | > 128 | > 128 | > 128 | > 128 | > 128 | 5.04 | 4.87 | 5.16
CC1(C)S[C@@H]2[C@H](NC(=O)Cc3ccccc3)C(=O)N2[C@H]1C(=O)O [penicillin G, reference compound] | 16 (≈ 47.8 µM) | 2 (≈ 5.98 µM) | 16 (≈ 47.8 µM) | 32 (≈ 95.7 µM) | 64 (≈ 191 µM) |  |  |  |  |  |  |  |  |  |  |  |  |  | 
